Measured values from EPA's ToxValDB 9.5 (doi:10.2903/j.efsa.2016.4453).
Several values for one entry are separate records, joined by “and”; a condition that tells them apart may be missing. Identical values can stand only once.

Legend:
[1] = test system: Anas platyrhynchos; conditions: acute; oral; unspecified; mortality
[2] = test system: Apis mellifera; conditions: acute, mortality
[3] = test system: Canidae; conditions: chronic; duration: 1 years; oral; Dog Other; body weight
[4] = test system: Colinus virginianus
[5] = test system: Coturnix japonica; conditions: acute; oral; mortality
[6] = test system: Folsomia candida; conditions: chronic/long-term; duration: 28 days; reproduction
[7] = test system: Oncorhynchus mykiss; conditions: acute; duration: 96 hours; mortality
[8] = test system: Plant; conditions: chronic/long-term; duration: 6 weeks
[9] = test system: Rattus norvegicus
[10] = test system: Salmo trutta ssp. fario; conditions: chronic/long-term; duration: 28 days; growth
[11] = test system: Typhlodromus pyri; assay: LR50; higher = less toxic; conditions: not reported; mortality

Question: Which LD50 [1] does the source give for `COC(=O)c1ccc(I)cc1S(=O)(=O)[N-]C(=O)Nc1nc(C)nc(OC)n1.[Na+]` [Iodosulfuron methyl ester sodium salt] here?
Answer: > 2000 mg/kg

Question: What about the LD50 ([2]; duration: 48 hours, dermal) of the same molecule?
Answer: > 100 µg/piece

Question: What about the LD50 ([2]; duration: 72 hours, oral, unspecified) of the same molecule?
Answer: > 70 µg/piece

Question: And the NOAEL [3]?
Answer: 7 mg/kg-day

Question: What about the LD50 ([4]; acute, oral, mortality) of the same molecule?
Answer: > 2000 mg/kg

Question: And the NOEL ([4]; reproduction developmental, reproduction)?
Answer: 78 mg/kg-day

Question: What about the LD50 [5] of the same molecule?
Answer: > 2000 mg/kg

Question: And the NOEC [6]?
Answer: 316 mg/kg

Question: And the LC50 [7]?
Answer: 0.684 µg/mL

Question: What about the NOAEC [8] of the same molecule?
Answer: 0.27 µg/L and 0.16 µg/L

Question: What about the LD50 ([9]; acute, Wistar, mortality) of the same molecule?
Answer: 2680 mg/kg

Question: What about the NOAEL ([9]; chronic, duration: 2 years, F, Wistar, body weight) of the same molecule?
Answer: 3.91 mg/kg-day

Question: What about the NOAEL ([9]; chronic, duration: 2 years, M, Wistar, body weight) of the same molecule?
Answer: 2.96 mg/kg-day

Question: What about the NOAEL ([9]; chronic, duration: 2 years, body weight) of the same molecule?
Answer: 3 mg/kg-day

Question: What about the NOAEL ([9]; developmental, development) of the same molecule?
Answer: 315 mg/kg-day

Question: What about the NOEC [10] of the same molecule?
Answer: 7.79 mg/L

Question: And the LR50 [11]?
Answer: > 30.3 g/ha
